Results reported in patent US5703239A, “Indanylpiperidines as melatonergic agents” (Bristol-Myers Squibb Company, priority 1996, dated 1997).

Target: T1, human ML1B receptor (Homo sapiens, UniProt P49286)
T1 construct: expressed in transfected cells; host or cells: NIH 3T3 cells (stably transfected; obtained from S. M. Reppert)
T1 sequence (P49286 1-362): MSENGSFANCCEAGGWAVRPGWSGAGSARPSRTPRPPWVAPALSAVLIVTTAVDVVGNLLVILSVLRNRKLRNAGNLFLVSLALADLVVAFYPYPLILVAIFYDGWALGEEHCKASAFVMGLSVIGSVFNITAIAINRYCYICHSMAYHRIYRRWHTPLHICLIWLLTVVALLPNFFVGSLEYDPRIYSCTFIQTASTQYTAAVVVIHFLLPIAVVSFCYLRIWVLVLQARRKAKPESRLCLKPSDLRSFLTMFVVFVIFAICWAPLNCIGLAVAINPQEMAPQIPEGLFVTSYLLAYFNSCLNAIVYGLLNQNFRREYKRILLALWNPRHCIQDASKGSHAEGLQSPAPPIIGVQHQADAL
Assay: Binding to human melatonergic receptors (2-[125I]-iodomelatonin, NIH 3T3 cell membranes, human ML1B receptor)
Conditions: IC50 class; 200 pM 2-[125I]-iodomelatonin, 37° C., 1 hour, membranes of NIH 3T3 cells transfected with human ML1B receptor; read-out: Melatonin Binding
Protocol: Measurement of Binding to Human Melatonergic Receptors The melatonergic binding affinities of various compounds of Formula I were determined by the method of Reppert, S. M., Weaver, D. R., and Ebisawa, R. (Neuron, Volume 13, 1177-1185, 1994). The assays were incubated at 37° C. for 1 hour, and the reaction was terminated by filtration. The filters were washed with wash buffer. […] The reagents, membrane and other techniques used in the melatonergic binding assays are more fully described below: […] Reagents: (a) 50 mM Tris buffer containing 12.5 mM MgCl2, and 2 mM EDTA, pH 7.4 at 37° C. (b) Wash buffer: 20 mM Tris base containing 2 mM MgCl2. pH 7.4 at room temperature. (c) Melatonin (10^-5 M final concentration). (d) 2-[^125 I]-Iodomelatonin, 200 pM final concentration Source: NEN 2. Membrane preparation: NIH 3T3 cells stably transfected with the human ML1B receptor were obtained from S. M. Reppert and maintained. Cells were pelleted when confluent. The supernatant was discarded and the pellets frozen. For preparing membrane homogenates, the pellets are thawed on ice and resuspended in TME buffer, Tris base, MgCl2, EDTA (pH 7.4 at 37° C.), supplemented with aprotinin, leupeptin, and […]. The cells were then homogenized and centrifuged. The resulting pellet was resuspended with a Dounce homogenizer in TME and frozen. At assay, a small aliquot was thawed on ice and resuspended in TME buffer.

IC50 | Compound
< 10 nM | CCCC(=O)N1CCC(C2CCc3ccc(F)cc32)CC1 (stereo not drawn) [1-Butanoyl-4-(6-fluoro-indan-1-yl)piperidine]
10 to 100 nM | CCNC(=O)N1CCC(C2CCc3ccccc32)CC1 (stereo not drawn) [N-Ethyl-4-(indan-1-yl)-piperidine-1-carboxamide]
< 10 nM | CNC(=O)N1CCC(C2CCc3ccc(OC)cc32)CC1 (single isomer, unassigned; (-)) [(-)-N-Methyl-4-(6-methoxy-indan-1-yl)piperidine-1-carboxamide]
< 10 nM | COc1ccc2c(c1)C(C1CCN(C(=O)C(F)(F)F)CC1)CC2 (stereo not drawn) [4-(6-methoxy-indan-1-yl)-1-(trifluoroacetyl)piperidine]
10 to 100 nM | CCNC(=O)N1CCC(C2CCc3ccc(OCCCc4cccc(OC)c4)cc32)CC1 (stereo not drawn) [N-Ethyl-4-[6-[3-(3-methoxyphenyl)propyloxy]-indan-1-yl]piperidine-1-carboxamide]
< 10 nM | O=C(C1CC1)N1CCC(C2CCc3ccccc32)CC1 (stereo not drawn) [1-(Cyclopropylcarbonyl)-4-(indan-1-yl)piperidine]
10 to 100 nM | COc1ccc2c(c1)C(C1CCN(C(=O)c3ccc(C)s3)CC1)CC2 (stereo not drawn) [4-(6-methoxy-indan-1-yl)-1-[(5-methyl-thien-2-yl)carbonyl]piperidine]
< 10 nM | CNC(=O)N1CCC(C2CCc3cc(F)c(OC)cc32)CC1 (stereo not drawn) [N-Methyl-4-(5-fluoro-6-methoxy-indan-1-yl)piperidine-1-carboxamide]
< 10 nM | COCC(=O)N1CCC(C2CCc3ccc(OC)cc32)CC1 (stereo not drawn) [4-(6-Methoxy-indan-1-yl)-1-(2-methoxy-acetyl)piperidine]
< 10 nM | CCC(=O)N1CCC(C2CCc3cc(F)c(OC)cc32)CC1 (stereo not drawn) [4-(5-Fluoro-6-methoxy-indan-1-yl)-1-propanoylpiperidine]
< 10 nM | COc1cc2c(cc1F)CCC2C1CCN(C(=O)C(C)C)CC1 (stereo not drawn) [4-(5-Fluoro-6-methoxy-indan-1-yl)1-(2-methylpropanoyl)piperidine]
< 10 nM | CCc1ccc2c(c1)C(C1CCN(C(=O)C(C)C)CC1)CC2 (stereo not drawn) [4-(6-Ethyl-indan-1-yl)-1-(2-methylpropanoyl)piperidine]
10 to 100 nM | CCNC(=O)N1CCC(C2CCc3ccc(OC(F)(F)F)cc32)CC1 (stereo not drawn) [N-Ethyl-4-[6-(trifluoromethoxy)-indan-1-yl]piperidine-1-carboxamide]
< 10 nM | CNC(=O)N1CCC(C2CCc3ccc(OC)cc32)CC1 (stereo not drawn) [N-Methyl-4-(6-methoxy-indan-1-yl)piperidine-1-carboxamide]
< 10 nM | COc1ccc2c(c1)C(C1CCN(C(=O)c3csnn3)CC1)CC2 (stereo not drawn) [4-(6-Methoxy-indan-1-yl)-1-[(1,2,3-thiadiazol-4-yl)carbonyl]piperidine]
< 10 nM | COc1ccc2c(c1)C(C1CCN(C(=O)C3CC3)CC1)CC2 (stereo not drawn) [1-Cyclopropylcarbonyl-4-(6-methoxy-indan-1-yl)piperidine]
< 10 nM | COc1ccc2c(c1)C(C1CCN(C(=O)c3ccsc3)CC1)CC2 (stereo not drawn) [4-(6-Methoxy-indan-1-yl)-1-[(3-thienyl)carbonyl]piperidine]
< 10 nM | COc1ccc2c(c1)C(C1CCN(C(=O)c3ccco3)CC1)CC2 (stereo not drawn) [1-[(2-Furanyl)carbonyl]-4-(6-methoxy-indan-1-yl)-piperidine]
< 10 nM | CNC(=O)N1CCC(C2CCc3ccccc32)CC1 (stereo not drawn) [N-Methyl-4-(indan-1-yl)-piperidine-1-carboxamide]
< 10 nM | COc1ccc2c(c1)C(C1CCN(C(=O)C(C)C)CC1)CC2 (single isomer, unassigned; (-)) [(-)-4-(6-Methoxy-indan-1-yl)-1-(2-methyl-propanoyl)piperidine]

IC50 | Compound
10 to 100 nM | O=C(C1CC1)N1CCC(C2CCc3ccc(OC(F)(F)F)cc32)CC1 (stereo not drawn) [1-(Cyclopropylcarbonyl)-4-[6-(trifluoromethoxy)-indan-1-yl]piperidine]
< 10 nM | COc1ccc2c(c1)C(C1CCN(C(=O)CSC)CC1)CC2 (stereo not drawn) [4-(6-Methoxy-indan-1-yl)-1-(2-methylthioacetyl)piperidine]
< 10 nM | COc1ccc2c(c1)C(C1CCN(C(=O)c3ccoc3)CC1)CC2 (stereo not drawn) [1-[(3-Furanyl)carbonyl]4-(6-methoxy-indan-1-yl)-piperidine]
100 to 250 nM | COCC(=O)N1CCC(C2CCc3ccc(OC)cc32)CC1 (single isomer, unassigned; (+)) [(+)-1-(2-Methoxyacetyl)-4-(6-methoxy-indan-1-yl)piperidine]
< 10 nM | CCCC(=O)N1CCC(C2CCc3cc(F)c(OC)cc32)CC1 (stereo not drawn) [1-Butanoyl-4-(5-fluoro-6-methoxy-indan-1-yl)piperidine]
10 to 100 nM | CCNC(=O)N1CCC(C2CCc3ccc(OC)cc32)CC1 (single isomer, unassigned; (+)) [(+)N-Ethyl-4-(6-methoxy-indan-1-yl)piperidine-1-carboxamide]
< 10 nM | COc1ccc2c(c1)C(C1CCN(C(=O)C(F)(F)F)CC1)CC2 (single isomer, unassigned; (-)) [(-)-4-(6-methoxy-indan-1-yl)-1-(trifluoroacetyl)piperidine]
< 10 nM | COc1ccc2c(c1)C(C1CCN(C(=O)C(C)C)CC1)CC2 (stereo not drawn) [4-(6-methoxy-indan-1-yl)-1-(2-methylpropanoyl)piperidine]
< 10 nM | COc1ccc2c(c1)C(C1CCN(C=O)CC1)CC2 (stereo not drawn) [1-Formyl-4-(6-methoxy-indan-1-yl)piperidine]
< 10 nM | CCCCC(=O)N1CCC(C2CCc3ccc(OC)cc32)CC1 (single isomer, unassigned; (-)) [(-)-4-(6-Methoxy-indan-1-yl)-1-pentanoylpiperidine]
< 10 nM | COCC(=O)N1CCC(C2CCc3ccc(OC)cc32)CC1 (single isomer, unassigned; (-)) [(-)-4-(6-Methoxy-indan-1-yl)-1-(2-methoxyacetyl)piperidine]
10 to 100 nM | COc1ccc2c(c1)C(C1CCN(C(=O)c3csc(Cl)c3OC)CC1)CC2 (stereo not drawn) [1-[(2-Chloro-3-methoxythien-4-yl)carbonyl]-4-(6-methoxy-indan-1-yl)piperidine]
10 to 100 nM | COc1ccc2c(c1)C(C1CCN(C(=O)C(C)C)CC1)CC2 (single isomer, unassigned; (+)) [(+)-4-(6-Methoxy-indan-1-yl)-1-(2-methylpropanoyl)piperidine]
< 10 nM | CCCC(=O)N1CCC(C2CCc3ccc(OC)cc32)CC1 (single isomer, unassigned; (-)) [(-)-1-Butanoyl-4-(6-methoxy-indan-1-yl)piperidine]
< 10 nM | COc1ccc2c(c1)C(C1CCN(C(=O)N(C)C)CC1)CC2 (single isomer, unassigned; (-)) [(-)-N,N-Dimethyl-4-(6-methoxy-indan-1-yl)piperidine-1-carboxamide]
< 10 nM | CCCCCCCOc1ccc2c(c1)C(C1CCN(C(=O)NCC)CC1)CC2 (stereo not drawn) [N-Ethyl-4-[6-(n-heptyloxy)-indan-1-yl]piperidine-1-carboxamide]
< 10 nM | CCC(C)C(=O)N1CCC(C2CCc3ccc(OC)cc32)CC1 (stereo not drawn) [4-(6-Methoxy-indan-1-yl)-1-(2-methylbutanoyl)piperidine]
< 10 nM | COc1ccc2c(c1)C(C1CCN(C(=O)c3sccc3C)CC1)CC2 (stereo not drawn) [4-(6-Methoxy-indan-1-yl)-1-[(3-methyl-thien-2-yl)carbonyl]piperidine]
10 to 100 nM | CCNC(=O)N1CCC(C2CCCc3ccc(OC)cc32)CC1 (stereo not drawn) [N-Ethyl-4-(7-methoxy-tetralin-1-yl)piperidine-1-carboxamide]
